For 25 molecules, Ki results are on record in patent US8912179B2, “Heterocyclyl compounds as histamine H3 receptor ligands” (Suven Life Sciences Limited, priority 2010, dated 2014).

Structures can show the parent of a compound that is named as a salt.

The assay concerns the target Histamine H3 receptor (UniProt Q9Y5N1). Nature of the assay: Binding assay for human or rat histamine H3 receptor ([3H] R-α-methylhistamine). The conditions noted are these: [3H] R-α-methylhistamine 3.0 nM; rat brain frontal cortex or recombinant human receptor in CHO cells (not specified which). On the procedure:
Compounds can be evaluated according to the following procedures.
• Receptor source: Rat brain frontal cortex or recombinant human cDNA expressed in CHO cells • Radioligand: [^3H] R-α-methylhistamine • Final ligand concentration—[3.0 nM] • Non-specific determinant: R-α-methylhistamine (100 uM) • Reference compound: R-α-methylhistamine • Positive control: R-α-methylhistamine Incubation Conditions:
Increasing concentrations of test compounds or standard were incubated with membrane receptors and radioligand in 5 mM MgCl2 and 50 mM TRIS-HCl (pH 7.4) for 60 minutes at room temperature. The reaction was terminated by rapid vacuum filtration onto the glass fiber filters. Radioactivity trapped onto the filters was determined and compared to the control values in order to ascertain any interactions of the test compound(s) with either cloned human or rat receptor binding site.
The Ki is the equilibrium dissociation constant of an inhibitor or competing ligand from its target. Turning to `O=C(c1ccncc1)N1CCc2nc(OC3CCN(C4CCC4)CC3)sc2C1` [Example 16, [2-(1-Cyclobutyl-piperidin-4-yloxy)-6,7-dihydro-4H-thiazolo[5,4-c]pyridin-5-yl]-pyridin-4-yl-methanone tartrate], the Ki came out at 33.5 nM.
As to `NC(=O)c1ccc(N2CCc3nc(OC4CCN(C5CCC5)CC4)sc3C2)nc1` [Example 31, 6-[2-(1-Cyclobutyl-piperidin-4-yloxy)-6,7-dihydro-4H-thiazolo[5,4-c]pyridin-5-yl]-nicotinamide], the Ki amounted to 1.62 nM.
Regarding `CCC(=O)NC1CCc2nc(OC3CCN(C4CCC4)CC3)sc2C1` (stereo not shown) [Example 3, N-[2-(1-Cyclobutyl-piperidin-4-yloxy)-4,5,6,7-tetrahydro-benzothiazol-6-yl]-propionamide], the Ki stood at 26.7 nM.
Regarding `O=C(C1CC1)N1CCc2nc(OC3CCC(C4CCC4)CC3)sc2CC1` (stereo not shown) [Example 2, [2-(4-Cyclobutyl-cyclohexyloxy)-4,5,7,8-tetrahydro-thiazolo[5,4-d]azepin-6-yl]-cyclopropyl-methanone tartrate], the Ki turned out to be 2 nM.
On to `O=C(CC1CC1)N1CCc2nc(OC3CCN(C4CCC4)CC3)sc2C1` [Example 19, 1-[2-(1-Cyclobutyl-piperidin-4-yloxy)-6,7-dihydro-4H-thiazolo[5,4-c]pyridin-5-yl]-2-cyclopropyl-ethanone], for which the Ki was 12.3 nM.
Regarding `O=C(C1CCCC1)N1CCc2nc(OC3CCN(C4CCC4)CC3)sc2C1` [Example 32, [2-(1-Cyclobutyl-piperidin-4-yloxy)-6,7-dihydro-4H-thiazolo[5,4-c]pyridin-5-yl]-cyclopentyl-methanone tartrate], the Ki came out at 4.6 nM.
The figure for `O=C(C1CC1)N1CCCC(Oc2nc3c(s2)CN(C2CCC2)CC3)C1` (stereo not shown) [Example 14, [3-(5-Cyclobutyl-,6,7-dihydro-4H-thiazolo[5,4-c]pyridin-2-yloxy)-piperidin-1-yl]-cyclopropyl-methanone tartrate] is 23.6 nM; for `O=S(=O)(c1ccccc1F)N1CCc2nc(OC3CCN(C4CCC4)CC3)sc2C1` [Example 20, 2-(1-Cyclobutyl-piperidin-4-yloxy)-5-(2-fluoro-benzenesulfonyl)-,6,7-dihydro-4H-thiazolo[5,4-c]pyridine tartrate] it is 7.4 nM; for `CC(C)N1CCC(Oc2nc3c(s2)CN(C(=O)C2CCC2)CC3)CC1` [Example 8, Cyclobutyl-[2-(1-isopropyl-piperidin-4-yloxy)-6,7-dihydro-4H-thiazolo[5,4-c]pyridin-5-yl]-methanone] it is 7.69 nM.
As for `CC(C)N1CCC(Oc2nc3c(s2)CCN(C(=O)C2CC2)CC3)CC1` [Example 34, Cyclopropyl-[2-(1-isopropyl-piperidin-4-yloxy)-4,5,7,8-tetrahydro-thiazolo[5,4-d]azepin-6-yl]-methanone tartrate], the Ki is 15.6 nM.
`O=C(CN1CCCCC1)N1CCc2nc(OC3CCN(C4CCC4)CC3)sc2C1` [Example 18, 1-[2-(1-Cyclobutyl-piperidin-4-yloxy)-6,7-dihydro-4H-thiazolo[5,4-c]pyridin-5-yl]-2-piperidin-1-yl-ethanone tartrate]: the Ki turned out to be 6.96 nM.
In the case of `O=C(N1CCCCC1)N1CCc2nc(OC3CCN(C4CCC4)CC3)sc2C1` [Example 30, [2-(1-Cyclobutyl-piperidin-4-yloxy)-6,7-dihydro-4H-thiazolo[5,4-c]pyridin-5-yl]-piperidin-1-yl-methanone hydrochloride], the Ki was determined as 4.19 nM.
On to `FC(F)(F)c1ccc(N2CCc3nc(OC4CCN(C5CCC5)CC4)sc3C2)cn1` [Example 23, 2-(1-Cyclobutyl-piperidin-4-yloxy)-5-(2-trifluoromethyl-pyridin-5-yl)-,6,7-dihydro-4H-thiazolo[5,4-c]pyridine], for which the Ki was determined as 0.3 nM.
The figure for `O=C(C1CC1)N1CCCc2nc(OC3CCN(C4CCC4)CC3)sc21` [Example 33, [2-(1-Cyclobutyl-piperidin-4-yloxy)-6,7-dihydro-5H-thiazolo[5,4-b]pyridin-4-yl]-cyclopropyl-methanone tartrate] is 15.4 nM; for `O=C(N1CCOCC1)N1CCc2nc(OC3CCN(C4CCC4)CC3)sc2C1` [Example 29, [2-(1-Cyclobutyl-piperidin-4-yloxy)-6,7-dihydro-4H-thiazolo[5,4-c]pyridin-5-yl]-morpholin-4-yl-methanone tartrate] it is 11.3 nM.
Take `O=C(C1CCC1)N1CCc2nc(OC3CCN(C4CC4)CC3)sc2C1` [Example 11, Cyclobutyl-[2-(1-cyclopropyl-piperidin-4-yloxy)-6,7-dihydro-4H-thiazolo[5,4-c]pyridin-5-yl]-methanone tartrate]: the Ki stood at 12 nM.
The value for `O=C(C1CC1)N1CCc2nc(OC3CCN(C4CC4)CC3)sc2C1` [Example 10, Cyclopropyl-[2-(1-cyclopropyl-piperidin-4-yloxy)-6,7-dihydro-4H-thiazolo[5,4-c]pyridin-5-yl]-methanone tartrate] was 5.43 nM.
The value for `c1cncc(N2CCc3nc(OC4CCN(C5CCC5)CC4)sc3C2)c1` [Example 27, 2-(1-Cyclobutyl-piperidin-4-yloxy)-5-pyridin-3-yl-,6,7-dihydro-4H-thiazolo[5,4-c]pyridine tartrate] was 0.75 nM; that for `COc1ccc(C(=O)N2CCc3nc(OC4CCN(C5CCC5)CC4)sc3C2)cc1` [Example 17, [2-(1-Cyclobutyl-piperidin-4-yloxy)-6,7-dihydro-4H-thiazolo[5,4-c]pyridin-5-yl]-(4-methoxy-phenyl)-methanone tartrate] was 21.2 nM; that for `CC(C)N1CCC(Oc2nc3c(s2)CN(C(=O)C2CC2)CC3)CC1` [Example 9, Cyclopropyl-[2-(1-isopropyl-piperidin-4-yloxy)-6,7-dihydro-4H-thiazolo[5,4-c]pyridin-5-yl]-methanone tartrate] was 9.94 nM.
As to `O=C(c1cccnc1)N1CCc2nc(OC3CCN(C4CCC4)CC3)sc2C1` [Example 26, [2-(1-Cyclobutyl-piperidin-4-yloxy)-6,7-dihydro-4H-thiazolo[5,4-c]pyridin-5-yl]-pyridin-3-yl-methanone tartrate], the Ki is 32.5 nM.
On to `O=C(c1ccc(C(F)(F)F)nc1)N1CCc2nc(OC3CCN(C4CCC4)CC3)sc2C1` [Example 25, [2-(1-Cyclobutyl-piperidin-4-yloxy)-6,7-dihydro-4H-thiazolo[5,4-c]pyridin-5-yl]-(2-trifluoromethyl-pyridin-5-yl)-methanone], for which the Ki came to 35.3 nM.
The value for `O=C(c1ccccc1F)N1CCc2nc(OC3CCN(C4CCC4)CC3)sc2C1` [Example 6, [2-(1-Cyclobutyl-piperidin-4-yloxy)-6,7-dihydro-4H-thiazolo[5,4-c]pyridin-5-yl]-(2-fluoro-phenyl)-methanone tartrate] was 13.4 nM; that for `CS(=O)(=O)N1CCc2nc(OC3CCN(C4CCC4)CC3)sc2C1` [Example 21, 2-(1-Cyclobutyl-piperidin-4-yloxy)-5-methanesulfonyl-,6,7-dihydro-4H-thiazolo[5,4-c]pyridine] was 22.6 nM; that for `CC(C)CC(=O)N1CCc2nc(OC3CCN(C4CCC4)CC3)sc2C1` [Example 7, 1-[2-(1-Cyclobutyl-piperidin-4-yloxy)-6,7-dihydro-4H-thiazolo[5,4-c]pyridin-5-yl]-3-methyl-butan-1-one tartrate] was 10.5 nM.
